Calls of active or inactive are those of the source. The rule behind the calls is not given here.
Assays:
Cytochrome P450 2D6 = Cytochrome P450 2D6 (Homo sapiens, UniProt P10635); test: Inhibition of CYP2D6 (unknown origin) at 10 uM; type: ADME
Cytochrome P450 3A4 = Cytochrome P450 3A4 (Homo sapiens, UniProt P08684); test: Inhibition of CYP3A4 (unknown origin); type: ADME
[1] = Volume of distribution in CD-1 mouse plasma at 2 mg/kg, iv measured up to 8 hrs; type: ADME, organism-based
[2] = Half life in human liver microsomes at 1 uM in presence of NADPH by LC-MS/MS analysis; type: ADME, Microsome
[3] = Half life in CD-1 mouse plasma at 2 mg/kg, iv measured up to 8 hrs; type: ADME, organism-based
[4] = MRT in CD-1 mouse plasma at 2 mg/kg, iv measured up to 8 hrs; type: ADME, organism-based
[5] = Drug concentration in brain of CD-1 mouse at 2 mg/kg, iv administered as single cassette dose measured after 15 mins; type: ADME, organism-based; conditions: read-out: Ct
Cytochrome P450 2C9 = Cytochrome P450 2C9 (Homo sapiens, UniProt P11712); test: Inhibition of CYP2C9 (unknown origin) at 10 uM; type: ADME
Cathepsin K = target: T1, Cathepsin K (Homo sapiens, UniProt P43235); test: Inhibition of recombinant human Cathepsin K using Z-Phe-Arg-AMC as fluorogenic substrate preincubated for 120 mins followed by substrate addition by fluorescence assay
T1 sequence (P43235 whole entry): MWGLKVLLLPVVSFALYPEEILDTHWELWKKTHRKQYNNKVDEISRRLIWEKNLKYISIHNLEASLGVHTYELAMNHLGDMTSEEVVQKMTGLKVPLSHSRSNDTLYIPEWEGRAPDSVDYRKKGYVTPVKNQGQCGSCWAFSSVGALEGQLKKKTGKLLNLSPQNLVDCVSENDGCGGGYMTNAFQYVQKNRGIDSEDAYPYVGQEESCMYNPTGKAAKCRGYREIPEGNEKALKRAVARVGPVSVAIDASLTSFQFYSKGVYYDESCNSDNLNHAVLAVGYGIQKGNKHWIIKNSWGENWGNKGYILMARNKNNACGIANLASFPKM

[6] = target: Cannabinoid receptor 1 (Rattus norvegicus) (UniProt P20272); test: Displacement of [3H]-CP55940 from rat forebrain CB1 receptor at 10 uM
Cytochrome P450 1A2 = target: T2, Cytochrome P450 1A2 (Homo sapiens, UniProt P05177); test: Inhibition of CYP1A2 (unknown origin); type: ADME
T2 sequence (P05177 whole entry): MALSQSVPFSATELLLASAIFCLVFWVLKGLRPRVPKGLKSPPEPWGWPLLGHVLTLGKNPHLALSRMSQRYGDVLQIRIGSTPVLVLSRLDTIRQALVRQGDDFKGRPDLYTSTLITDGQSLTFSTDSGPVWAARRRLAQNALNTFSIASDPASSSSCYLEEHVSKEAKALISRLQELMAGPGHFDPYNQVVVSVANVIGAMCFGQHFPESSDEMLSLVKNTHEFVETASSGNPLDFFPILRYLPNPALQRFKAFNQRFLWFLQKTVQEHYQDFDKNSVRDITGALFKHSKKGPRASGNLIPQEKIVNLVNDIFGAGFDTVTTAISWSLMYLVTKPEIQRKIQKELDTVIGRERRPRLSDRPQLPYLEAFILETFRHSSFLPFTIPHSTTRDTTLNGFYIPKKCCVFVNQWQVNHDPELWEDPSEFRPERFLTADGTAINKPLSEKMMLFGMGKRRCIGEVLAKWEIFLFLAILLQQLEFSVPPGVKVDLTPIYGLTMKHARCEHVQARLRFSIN

[7] = target: Sodium-dependent noradrenaline transporter (Homo sapiens) (UniProt P23975); test: Inhibition of NET (unknown origin) at 10 uM
[8] = Mutagenecity in Salmonella typhimurium TA1535 in absence of S9 fraction at 5 to 100 uM by Ames test; type: toxicity; conditions: salmonella enterica subsp. enterica serovar typhimurium, s9, 100 µM; dose 5-100 µM
[9] = target: Cannabinoid receptor 2 (Mus musculus) (UniProt P47936); test: Displacement of [3H]-CP55940 from mouse CB2 receptor expressed in HEK293 cell membrane at 10 uM; type: cell membranes
Cytochrome P450 2A6 = target: T3, Cytochrome P450 2A6 (Homo sapiens, UniProt P11509); test: Inhibition of CYP2A6 (unknown origin) at 10 uM; type: ADME
T3 sequence (P11509 whole entry): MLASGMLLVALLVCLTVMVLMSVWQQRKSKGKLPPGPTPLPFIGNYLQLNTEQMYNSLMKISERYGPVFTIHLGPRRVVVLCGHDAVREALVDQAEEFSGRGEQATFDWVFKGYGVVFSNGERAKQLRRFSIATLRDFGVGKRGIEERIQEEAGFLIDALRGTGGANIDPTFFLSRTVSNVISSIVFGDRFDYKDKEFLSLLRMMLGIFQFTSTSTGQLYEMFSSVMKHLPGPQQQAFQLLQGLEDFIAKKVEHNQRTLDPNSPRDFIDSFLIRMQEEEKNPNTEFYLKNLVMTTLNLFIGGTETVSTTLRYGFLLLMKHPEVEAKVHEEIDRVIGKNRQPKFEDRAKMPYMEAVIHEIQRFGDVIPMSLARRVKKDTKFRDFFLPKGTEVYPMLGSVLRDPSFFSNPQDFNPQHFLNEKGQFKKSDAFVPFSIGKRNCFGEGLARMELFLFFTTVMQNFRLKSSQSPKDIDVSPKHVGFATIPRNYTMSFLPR

[10] = target: Sodium-dependent dopamine transporter (Homo sapiens) (UniProt Q01959); test: Inhibition of DAT (unknown origin) at 10 uM
[11] = AUC in CD-1 mouse brain at 8 mg/kg, po measured up to 6 hrs; type: ADME, organism-based; set-up: route oral, dose 8 mg/kg, time <=6
[12] = Volume of distribution in CD-1 mouse plasma at 8 mg/kg, po measured up to 8 hrs; type: ADME, organism-based; conditions: in vivo
[13] = Oral bioavailability in CD-1 mouse plasma at 8 mg/kg measured up to 8 hrs; type: ADME, organism-based
Cytochrome P450 2C19 = Cytochrome P450 2C19 (Homo sapiens, UniProt P33261); test: Inhibition of CYP2C19 (unknown origin); type: ADME
[14] = Mutagenecity in Salmonella typhimurium TA98 in presence of S9 fraction at 5 to 100 uM by Ames test; type: toxicity, subcellular; conditions: salmonella enterica subsp. enterica serovar typhimurium, s9, 100 µM; dose 5-100 µM
[15] = target: Sodium-dependent serotonin transporter (Homo sapiens) (UniProt P31645); test: Inhibition of SERT (unknown origin) at 10 uM
[16] = AUC in CD-1 mouse brain at 2 mg/kg, iv measured up to 6 hrs; type: ADME, organism-based; set-up: route intravenous, dose 2 mg/kg, time <=6
[17] = Mutagenecity in Salmonella typhimurium TA1537 in absence of S9 fraction at 5 to 100 uM by Ames test; type: toxicity; conditions: salmonella enterica subsp. enterica serovar typhimurium, s9, 100 µM; dose 5-100 µM
[18] = Ratio of drug concentration in brain to plasma in CD-1 mouse at 8 mg/kg, po; type: ADME, organism-based; conditions: read-out: BPR
[19] = MRT in CD-1 mouse plasma at 8 mg/kg, po measured up to 8 hrs; type: ADME, organism-based
[20] = Mutagenecity in Salmonella typhimurium TA1537 in presence of S9 fraction at 5 to 100 uM by Ames test; type: toxicity, subcellular; conditions: salmonella enterica subsp. enterica serovar typhimurium, s9, 100 µM; dose 5-100 µM

Sodium-dependent noradrenaline transporter (Homo sapiens), sequence (P23975 whole entry): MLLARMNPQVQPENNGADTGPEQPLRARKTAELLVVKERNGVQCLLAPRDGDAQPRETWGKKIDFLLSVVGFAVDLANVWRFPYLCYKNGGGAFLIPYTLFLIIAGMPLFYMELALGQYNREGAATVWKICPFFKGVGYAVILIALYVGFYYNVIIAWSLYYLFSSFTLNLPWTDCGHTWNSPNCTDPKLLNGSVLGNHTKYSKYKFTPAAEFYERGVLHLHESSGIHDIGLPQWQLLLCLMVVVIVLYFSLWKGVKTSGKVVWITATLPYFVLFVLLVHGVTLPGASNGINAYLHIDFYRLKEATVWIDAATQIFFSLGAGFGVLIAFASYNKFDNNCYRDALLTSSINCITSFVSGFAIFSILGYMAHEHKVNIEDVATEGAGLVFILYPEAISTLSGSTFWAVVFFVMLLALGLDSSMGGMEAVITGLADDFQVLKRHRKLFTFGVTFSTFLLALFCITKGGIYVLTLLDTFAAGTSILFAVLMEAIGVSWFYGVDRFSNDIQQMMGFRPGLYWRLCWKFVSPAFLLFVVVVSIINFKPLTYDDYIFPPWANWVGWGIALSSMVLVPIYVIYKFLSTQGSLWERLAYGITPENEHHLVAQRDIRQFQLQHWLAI
Sodium-dependent dopamine transporter (Homo sapiens), sequence (Q01959 whole entry): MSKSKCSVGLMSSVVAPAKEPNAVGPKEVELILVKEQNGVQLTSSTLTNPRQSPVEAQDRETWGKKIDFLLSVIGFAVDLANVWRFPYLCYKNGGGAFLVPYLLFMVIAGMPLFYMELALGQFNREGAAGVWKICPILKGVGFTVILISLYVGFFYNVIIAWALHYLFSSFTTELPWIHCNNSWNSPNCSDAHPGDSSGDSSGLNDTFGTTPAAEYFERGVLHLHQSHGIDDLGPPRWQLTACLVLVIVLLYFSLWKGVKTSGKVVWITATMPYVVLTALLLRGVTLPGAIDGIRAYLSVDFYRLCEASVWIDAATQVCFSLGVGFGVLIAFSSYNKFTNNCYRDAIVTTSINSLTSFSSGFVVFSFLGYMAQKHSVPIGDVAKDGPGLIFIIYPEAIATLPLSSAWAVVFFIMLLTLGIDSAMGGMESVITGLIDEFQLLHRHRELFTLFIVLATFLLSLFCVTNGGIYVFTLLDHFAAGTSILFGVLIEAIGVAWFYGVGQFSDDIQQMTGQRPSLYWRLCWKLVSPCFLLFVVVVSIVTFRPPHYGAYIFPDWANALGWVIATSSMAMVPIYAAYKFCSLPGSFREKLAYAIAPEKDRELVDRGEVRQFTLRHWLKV
Sodium-dependent serotonin transporter (Homo sapiens), sequence (P31645 whole entry, looked up): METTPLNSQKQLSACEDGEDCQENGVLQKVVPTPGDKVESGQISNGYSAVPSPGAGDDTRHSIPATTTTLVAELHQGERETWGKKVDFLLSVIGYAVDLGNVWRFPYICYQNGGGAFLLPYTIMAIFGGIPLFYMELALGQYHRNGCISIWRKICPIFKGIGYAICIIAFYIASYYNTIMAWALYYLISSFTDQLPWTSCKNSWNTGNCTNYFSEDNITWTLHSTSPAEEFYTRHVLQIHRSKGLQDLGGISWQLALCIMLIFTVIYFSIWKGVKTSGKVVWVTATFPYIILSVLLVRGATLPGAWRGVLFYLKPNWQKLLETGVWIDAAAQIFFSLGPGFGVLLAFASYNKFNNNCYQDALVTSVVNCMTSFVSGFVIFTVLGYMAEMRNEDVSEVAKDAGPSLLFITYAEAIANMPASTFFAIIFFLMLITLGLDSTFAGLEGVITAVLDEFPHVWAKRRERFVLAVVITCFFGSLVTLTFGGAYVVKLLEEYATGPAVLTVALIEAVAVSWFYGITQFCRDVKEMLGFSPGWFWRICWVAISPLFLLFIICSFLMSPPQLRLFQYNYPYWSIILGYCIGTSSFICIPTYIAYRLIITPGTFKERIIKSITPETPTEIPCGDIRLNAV
Cytochrome P450 2C9, sequence (P11712 whole entry): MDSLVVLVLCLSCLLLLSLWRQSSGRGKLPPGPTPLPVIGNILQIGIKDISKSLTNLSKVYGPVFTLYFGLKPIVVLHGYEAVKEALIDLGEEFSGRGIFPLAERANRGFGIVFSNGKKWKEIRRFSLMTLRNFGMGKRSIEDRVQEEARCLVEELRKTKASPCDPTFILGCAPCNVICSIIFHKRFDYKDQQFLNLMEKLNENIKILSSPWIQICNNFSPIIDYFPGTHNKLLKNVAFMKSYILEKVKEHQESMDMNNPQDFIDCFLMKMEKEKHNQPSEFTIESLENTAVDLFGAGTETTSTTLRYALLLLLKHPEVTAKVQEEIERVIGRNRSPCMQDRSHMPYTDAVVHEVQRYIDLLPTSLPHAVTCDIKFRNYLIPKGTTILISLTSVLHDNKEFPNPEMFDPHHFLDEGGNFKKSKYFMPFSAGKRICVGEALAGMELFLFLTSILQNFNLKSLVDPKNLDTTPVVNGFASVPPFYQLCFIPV
Cannabinoid receptor 2 (Mus musculus), sequence (P47936 whole entry): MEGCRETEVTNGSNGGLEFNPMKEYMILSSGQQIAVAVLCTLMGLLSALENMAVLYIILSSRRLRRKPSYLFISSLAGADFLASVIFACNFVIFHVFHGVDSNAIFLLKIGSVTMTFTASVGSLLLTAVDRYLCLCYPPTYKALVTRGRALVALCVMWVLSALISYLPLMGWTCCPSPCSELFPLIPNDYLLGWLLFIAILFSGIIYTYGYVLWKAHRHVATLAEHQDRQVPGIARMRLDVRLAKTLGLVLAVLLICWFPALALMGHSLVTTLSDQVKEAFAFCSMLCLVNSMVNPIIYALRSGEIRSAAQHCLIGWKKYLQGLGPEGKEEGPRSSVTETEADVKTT
Cytochrome P450 3A4, sequence (P08684 whole entry): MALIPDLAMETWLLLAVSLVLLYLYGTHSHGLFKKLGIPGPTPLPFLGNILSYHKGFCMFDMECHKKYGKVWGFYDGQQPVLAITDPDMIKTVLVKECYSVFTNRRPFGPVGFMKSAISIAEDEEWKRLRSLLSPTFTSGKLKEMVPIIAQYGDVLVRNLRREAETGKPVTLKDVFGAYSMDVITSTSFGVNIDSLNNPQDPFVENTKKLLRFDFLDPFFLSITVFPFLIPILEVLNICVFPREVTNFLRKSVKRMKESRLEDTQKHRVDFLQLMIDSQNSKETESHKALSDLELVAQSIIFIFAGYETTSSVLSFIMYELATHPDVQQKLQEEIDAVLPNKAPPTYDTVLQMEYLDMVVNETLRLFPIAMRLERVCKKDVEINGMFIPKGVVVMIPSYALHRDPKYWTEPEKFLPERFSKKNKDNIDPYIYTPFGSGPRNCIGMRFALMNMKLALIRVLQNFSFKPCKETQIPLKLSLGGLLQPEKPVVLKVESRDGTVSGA
Cannabinoid receptor 1 (Rattus norvegicus), sequence (P20272 whole entry): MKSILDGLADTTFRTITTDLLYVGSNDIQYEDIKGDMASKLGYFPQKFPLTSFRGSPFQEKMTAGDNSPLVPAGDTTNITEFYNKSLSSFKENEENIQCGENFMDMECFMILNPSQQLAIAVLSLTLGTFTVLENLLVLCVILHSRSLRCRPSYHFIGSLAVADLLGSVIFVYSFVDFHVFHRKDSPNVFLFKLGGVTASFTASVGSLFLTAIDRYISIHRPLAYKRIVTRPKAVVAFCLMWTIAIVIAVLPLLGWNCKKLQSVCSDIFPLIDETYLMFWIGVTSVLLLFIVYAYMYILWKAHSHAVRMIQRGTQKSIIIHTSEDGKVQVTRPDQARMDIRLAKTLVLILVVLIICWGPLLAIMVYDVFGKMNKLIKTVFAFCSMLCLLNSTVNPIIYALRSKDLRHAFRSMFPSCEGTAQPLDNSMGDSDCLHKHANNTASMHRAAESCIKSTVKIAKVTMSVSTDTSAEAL
Cytochrome P450 2C19, sequence (P33261 whole entry): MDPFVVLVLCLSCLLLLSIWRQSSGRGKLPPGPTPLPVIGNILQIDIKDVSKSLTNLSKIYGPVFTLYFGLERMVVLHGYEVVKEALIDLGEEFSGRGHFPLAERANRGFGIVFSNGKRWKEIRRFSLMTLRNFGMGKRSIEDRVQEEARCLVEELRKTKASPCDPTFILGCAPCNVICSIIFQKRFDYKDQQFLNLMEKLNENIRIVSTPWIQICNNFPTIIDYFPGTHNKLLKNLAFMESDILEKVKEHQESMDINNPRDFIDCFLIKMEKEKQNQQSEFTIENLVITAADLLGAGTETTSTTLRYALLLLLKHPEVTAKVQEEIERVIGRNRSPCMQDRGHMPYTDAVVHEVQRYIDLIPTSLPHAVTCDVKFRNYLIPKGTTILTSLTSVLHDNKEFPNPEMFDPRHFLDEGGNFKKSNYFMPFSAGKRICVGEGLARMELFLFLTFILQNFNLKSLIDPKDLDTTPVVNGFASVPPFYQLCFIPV
Cytochrome P450 2D6, sequence (P10635 whole entry): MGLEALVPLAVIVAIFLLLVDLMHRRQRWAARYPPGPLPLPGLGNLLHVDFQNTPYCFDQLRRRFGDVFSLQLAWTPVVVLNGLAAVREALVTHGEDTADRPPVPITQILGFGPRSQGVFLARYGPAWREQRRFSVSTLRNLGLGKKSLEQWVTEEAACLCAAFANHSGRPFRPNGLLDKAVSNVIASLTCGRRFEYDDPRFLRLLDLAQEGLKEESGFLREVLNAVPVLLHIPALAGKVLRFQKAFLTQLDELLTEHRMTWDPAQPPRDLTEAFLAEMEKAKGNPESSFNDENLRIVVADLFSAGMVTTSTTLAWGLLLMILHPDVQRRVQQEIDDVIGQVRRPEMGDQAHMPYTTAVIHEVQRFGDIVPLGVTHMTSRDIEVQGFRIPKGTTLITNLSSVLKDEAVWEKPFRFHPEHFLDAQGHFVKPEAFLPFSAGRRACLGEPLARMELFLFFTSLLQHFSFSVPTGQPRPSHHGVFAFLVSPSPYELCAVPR

COc1ccc(-c2ccc(CO[C@H]3C[C@@H](N=C=S)C3)nc2)cc1F
inhibition (INH) (Cytochrome P450 2D6): Not Active | IC50 (Cytochrome P450 3A4): 2.6 µM | Vd [1]: 27 L/kg | half-life at 1 µM [2]: 16.7 min | half-life [3]: 45.5 min | MRT [4]: 20.3 min | concentration at 0.25 h [5]: 873 ng/g | inhibition (INH) (Cytochrome P450 2C9): Not Active | IC50 (Cathepsin K): 0.12 µM | inhibition [6]: inactive | IC50 (Cytochrome P450 1A2): 1.8 µM | inhibition [7]: inactive | Activity [8]: Non-Toxic | inhibition [9]: inactive | inhibition (INH) (Cytochrome P450 2A6): Not Active | inhibition [10]: inactive | AUC at 6 h [11]: 10.3 ng·h/mL | Vd [12]: 126 L/kg | bioavailability [13]: 13% | IC50 (Cytochrome P450 2C19): 3.3 µM | Activity [14]: Non-Toxic | inhibition [15]: inactive | AUC at 6 h [16]: 298 ng·h/mL | Activity [17]: Non-Toxic | Kp [18]: 0.25 | MRT [19]: 64.2 min | Activity [20]: Non-Toxic

— ChEMBL document CHEMBL4834430, “Design and Structure-Activity Relationships of Isothiocyanates as Potent and Selective N-Acylethanolamine-Hydrolyzing Acid Amidase Inhibitors” (J Med Chem, 2021)
